Data set [1] has as its target T1, recombinant human caspase 3 (Homo sapiens, UniProt P42574).
T1 construct: Recombinant full-length human caspase-3 was purified as described previously [21b]; made in house
T1 sequence (P42574 29-175 limits assumed): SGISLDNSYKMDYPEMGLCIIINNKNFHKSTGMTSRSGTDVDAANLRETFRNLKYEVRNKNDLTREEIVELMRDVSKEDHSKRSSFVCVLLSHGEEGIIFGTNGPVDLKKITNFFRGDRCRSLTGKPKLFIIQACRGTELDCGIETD
T1 sequence (P42574 176-277 limits assumed): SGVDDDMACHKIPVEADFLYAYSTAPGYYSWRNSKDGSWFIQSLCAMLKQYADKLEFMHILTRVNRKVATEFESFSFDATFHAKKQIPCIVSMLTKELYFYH
Nature of the data set: Caspase inhibition assay, standard fluorometric assay with Ac-DEVD-AMC. The data set is classed as biochemical. The note with it: Ki(app) = IC50/(1 + [S]/KM), [S] = 10 μM Ac-DEVD-AMC, 37° C., pH 7.5. Here is the method: The inhibition of recombinant human caspase 3 by twentythree isatin sulfonamides (twenty
Recombinant full-length human caspase-3 was purified as described previously [21b]. […] Enzyme assays were performed in a 200 μl volume at 37° C. in reaction buffer containing 0.1% CHAPS, 50 mM KCl, 5 mM β-mercaptoethanol, 25 mM HEPES (pH 7.5) and nonradioactive isatins in DMSO each in single doses (end concentrations 500 μM, 50 μM, 5 μM, 500 nM, 50 nM, 5 nM, 500 pM, 50 pM or 5 pM). […] After 10 min incubation time Ac-DEVD-AMC (end concentration 10 μM) was added and reacted for further 10 min. […] The IC50-values were determined by non-linear regression analysis using the XMGRACE program (Linux software) and converted into the corresponding Ki-values by the equation Ki=IC50/(1+[S]/KM) assuming competitive inhibition by the isatin derivatives, where [S] is the concentration and KM is the Michaelis constant of substrate Ac-DEVD-AMC.

Another data set deals with T2, active caspase-3 (Homo sapiens, UniProt P42574).
T2 construct: endogenous in cells; host or cells: HUVEC
T2 sequence (P42574 29-175 limits assumed): T1 sequence (P42574 29-175 limits assumed)
T2 sequence (P42574 176-277 limits assumed): T1 sequence (P42574 176-277 limits assumed)
Nature of the data set: Cellular caspase assay: growth factor withdrawal-induced apoptosis in HUVEC, Western blot. The data set is classed as cell-based. Particulars: 8 hours, at 10 μM (FIGS. 1 and 2). Here is the method:
In the context of cellular apoptosis assays concentration- and time-dependent kinetics of mentioned CbRs and CbR-transporter conjugates are performed to evaluate the pharmacological inhibition of apoptosis in viable apoptotic cells (e.g. growth factor withdrawal-induced, drug-induced, or ionizing radiation-induced apoptosis in endothelial cells).
HUVEC (Human umbilical vein endothelial cells) were cultivated on gelatine (2%)-coated dishes in RPMI-1640 containing 15% bovine calf serum, 1% Pen/Strep/Amph, 1% Heparin and 0.05 mg/ml bovine pituitary extract (BPE) at 37° C. in 5% CO2. Apoptosis was induced by growth factor withdrawal as previously described. For caspase inhibition experiments, cells were pre-incubated for 30 min with the compounds in the indicated concentrations. The medium was then removed and replaced with RPMI-1640 without serum or BPE, and the cells were incubated in the presence or absence of the various inhibitor concentrations for 8 hours. All cells were then harvested in lysis buffer, incubated for 10 min on ice, and cell debris was removed by centrifugation at 14000 rpm at 4° C. for 10 min. Protein concentration was determined by the Pierce protein assay, and 30 μg cell lysate were loaded on 15% SDS-Page gels and transferred to Immobilon PVDF membranes. Western blots were performed with antibodies to active caspase-3 (Cell Signaling) and developed using ECL (Amersham).
A quantitative (pharmacological) inhibition of before mentioned target caspases with the non-radioactive PET- or SPECT-compatible CbRs of presented invention needs macroscopic amounts of the inhibitor, i.e. concentrations of caspase inhibitor that are definitely more than necessarily needed for molecular imaging purposes.

Data set [2] is described as follows: Small-animal PET biodistribution after i.v. injection. The data set is classed as in vivo, WT Mouse (Nu/Nu). Particulars: mouse, 180 min p.i. How it is done:
PET was performed using a high-resolution dedicated small-animal PET system (32-module quadHIDAC; Oxford Positron Systems) which uses multiwire chamber detectors with submillimeter-resolution potency. For each data acquisition, up to two mice were placed on a heating pad to maintain a normal body temperature. The animals were anesthetised by inhalation of isoflurane (1.5%) and intravenously injected with approximately 7 MBq of each radiotracer in 100 μL isotonic as well as isohydric solution.
A small-animal PET scan was performed with the quadHIDAC device to trace the in vivo biodistribution behavior of the PET-compatible CbR (S)-1-(4-(2[<18>F]fluoroethoxy)benzyl)-5-[1-(2-methoxymethylpyrrolidinyl)-sulfonyl]isatin [<18>F]VI. Immediately after i.v. injection of [<18>F]VI (A=7MBq, pH=8, A5=48 GBq/[mu]mol, V=100 [mu]1 in sodium bicarbonate buffered saline solution) data acquisition was started. List-mode data were acquired for 180 min and subsequently reconstructed into an image volume of 90×90×120 mm<3>, voxel size 0.4×0.4×0.4 mm<3>, using an iterative reconstruction algorithm (OPL-EM). […] Mentioned hot spot remains even 6 h p.i. (data not shown).

For `C[Si](C)(C)c1ccc(CN2C(=O)C(=O)c3cc(S(=O)(=O)N4CCC[C@H]4COc4ccccc4)ccc32)cc1` [1b, (S)-5-[1-(2-phenoxymethylpyrrolidinyl)sulfonyl]-1-(4-trimethylsilylbenzyl)-isatin], the melting point is 128 to 130 °C (dec.). Further, the Ki in data set [1] was determined as 0.7 nM.

With `O=C1C(=O)N(Cc2ccc(OCCF)cc2)c2ccc(S(=O)(=O)N3CCC[C@H]3COc3ccccc3)cc21` [V, (S)-1-(4-(2-fluoroethoxy)benzyl)-5-[1-(2-phenoxymethylpyrrolidinyl)sulfonyl]isatin], the Ki in data set [1] worked out at 0.4 nM.

Molecule `COC[C@@H]1CCCN1S(=O)(=O)c1ccc2c(c1)C(=O)C(=O)N2Cc1ccc(OCCOS(=O)(=O)c2ccc(C)cc2)cc1` [VIa, (S)-1-(4-(2-(p-methylphenylsulfonyloxy)ethoxy)benzyl)-5-[1-(2-methoxymethylpyrrolidinyl)sulfonyl]isatin] returned a melting point of 61 to 62 °C. Besides, the Ki in data set [1] worked out at 2 nM.

As to `COC[C@@H]1CCCN1S(=O)(=O)c1ccc2c(c1)C(=O)C(=O)N2Cc1ccc(O)cc1` [IVa, (S)-1-(p-hydroxybenzyl)-5-[1-(2-methoxymethylpyrrolidinyl)sulfonyl]isatin], the Ki in data set [1] was determined as 45 nM.

As to `COC[C@@H]1CCCN1S(=O)(=O)c1ccc2c(c1)C(=O)C(=O)N2Cc1ccc(O[Si](C)(C)C(C)(C)C)cc1` [IVab, (S)-1-(p-tert-butyldimethylsilyloxybenzyl)-5-[1-(2-methoxymethylpyrrolidinyl)sulfonyl]-isatin], in data set [1], the Ki was found to be 4 nM.

On to `COC[C@@H]1CCCN1S(=O)(=O)c1ccc2c(c1)C(=O)C(=O)N2` [IIa, (S)-5-(1-[2-(methoxymethyl)pyrrolidinyl]-sulfonyl)isatin, reference compound], for which the Ki in data set [1] stood at 77 nM.

The molecule `COC[C@@H]1CCCN1S(=O)(=O)c1ccc2c(c1)C(=O)C(=O)N2Cc1ccc(OCCBr)cc1` [VIaa, (S)-1-(4-(2-bromoethoxy)benzyl)-5-[1-(2-methoxymethylpyrrolidinyl)-sulfonyl]isatin] gave a melting point of 61 to 62 °C. For the same molecule, in data set [1], the Ki came out at 13 nM.

Regarding `O=C1C(=O)N(Cc2ccc(OCCBr)cc2)c2ccc(S(=O)(=O)N3CCC[C@H]3COc3ccccc3)cc21` [Vaa, (S)-1-(4-(2-bromoethoxy)benzyl)-5-[1-(2-phenoxymethylpyrrolidinyl)sulfonyl]isatin], the melting point was 162 to 163 °C. In data set [1], the Ki was determined as 25 nM.

Molecule `O=C1C(=O)N(Cc2ccc(OCc3ccccc3)cc2)c2ccc(S(=O)(=O)N3CCC[C@H]3COc3ccccc3)cc21` [IIIaa, (S)-(+)-1-(4-benzyloxybenzyl)-5-[1-(2-phenoxymethylpyrrolidinyl)-sulfonyl]isatin] had a melting point of 69 to 70 °C. Further, the Ki in data set [1] worked out at 6.9 nM.

Consider `COC[C@@H]1CCCN1S(=O)(=O)c1ccc2c(c1)C(=O)C(=O)N2Cc1ccc(OC)cc1` [IV, (S)-1-(4-methoxybenzyl)-5-[1-(2-methoxymethylpyrrolidinyl)sulfonyl]isatin], for which the Ki in data set [1] was 9 nM. Moreover, the “inhibition of caspase progression (Western blot, active caspase-3)” value (“inhibition of caspase progression” below) against active caspase-3 was “recognizable”.

On to `CC(C)(C)[Si](C)(C)Oc1ccc(CN2C(=O)C(=O)c3cc(S(=O)(=O)N4CCC[C@H]4COc4ccccc4)ccc32)cc1` [IIIab, (S)-1-(p-tert-butyldimethylsilyloxybenzyl)-5-[1-(2-phenoxymethylpyrrolidinyl)sulfonyl]-isatin], for which the Ki in data set [1] was determined as 20 nM.

As to `COC[C@@H]1CCCN1S(=O)(=O)c1ccc2c(c1)C(=O)C(=O)N2Cc1ccc(I)cc1` [compound 2, (S)-1-(4-iodobenzyl)-5-[1-(2-methoxymethylpyrrolidinyl)sulfonyl]isatin], the melting point lay in the range of 129 to 130 °C. Moreover, in data set [1], the Ki was determined as 11 nM. Moreover, at active caspase-3, the “inhibition of caspase progression” value is “recognizable”.

Consider `O=C1C(=O)N(Cc2ccc(I)cc2)c2ccc(S(=O)(=O)N3CCC[C@H]3COc3ccccc3)cc21` [compound 1, (S)-1-(4-iodobenzyl)-5-[1-(2-phenoxymethylpyrrolidinyl)sulfonyl]isatin], for which the melting point was in the range of 88 to 90 °C.

Regarding `COC[C@@H]1CCCN1S(=O)(=O)c1ccc2c(c1)C(=O)C(=O)N2C` [II, (S)-5-[1-(2-methoxymethylpyrrolidinyl)sulfonyl]-1-methyl-isatin], the melting point was 143 to 144 °C. The Ki in data set [1] was found to be 2 nM. In addition, the “inhibition of caspase progression” value on active caspase-3 is on record as “recognizable”.

Consider `COC[C@@H]1CCCN1S(=O)(=O)c1ccc2c(c1)C(=O)C(=O)N2Cc1ccc(OCCF)cc1` [VI, (S)-1-(4-(2-fluoroethoxy)benzyl)-5-[1-(2-methoxymethylpyrrolidinyl)sulfonyl]isatin], for which, in data set [1], the Ki amounted to 36 nM. Also, the “inhibition of caspase progression” value against active caspase-3 was “recognizable”.

Regarding `COC[C@@H]1CCCN1S(=O)(=O)c1ccc2c(c1)C(=O)C(=O)N2Cc1ccc(OCC[18F])cc1` [[^18F]VI, (S)-1-(4-(2-[^18F]Fluoroethoxy)benzyl)-5-[1-(2-methoxymethylpyrrolidinyl)-sulfonyl]isatin], the “clearance of radioactivity from peripheral organs (PET)” value in data set [2] (7 MBq, all peripheral organs (FIG. 3)) is “cleared”. Besides, the “remaining radioactivity (PET)” value in data set [2] (hot spot (putatively gall bladder) remains even 6 h p.i.) is “only remains in the bowels and in a hot spot nearby the liver”.

Take `Cc1ccc(S(=O)(=O)OCCOc2ccc(CN3C(=O)C(=O)c4cc(S(=O)(=O)N5CCC[C@H]5COc5ccccc5)ccc43)cc2)cc1` [Va, (S)-1-(4-(2-(p-methylphenylsulfonyloxy)ethoxy)benzyl)-5-[1-(2-phenoxymethylpyrrolidinyl)sulfonyl]isatin]: the Ki in data set [1] came to 17 nM.

For `COC[C@@H]1CCCN1S(=O)(=O)c1ccc2c(c1)C(=O)C(=O)N2Cc1ccc(OCc2ccccc2)cc1` [IVaa, (S)-(+)-1-(4-benzyloxybenzyl)-5-[1-(2-methoxymethylpyrrolidinyl)-sulfonyl]isatin], the melting point lay in the range of 73 to 74 °C. Besides, in data set [1], the Ki came to 5 nM.

Consider `O=C1C(=O)N(Cc2ccc(Br)cc2)c2ccc(S(=O)(=O)N3CCC[C@H]3COc3ccccc3)cc21` [1c, (S)-(+)-1-(4-bromobenzyl)-5-[1-(2-phenoxymethylpyrrolidinyl)sulfonyl]isatin], for which, in data set [1], the Ki was 3 nM.

As to `O=C1C(=O)N(Cc2ccc(O)cc2)c2ccc(S(=O)(=O)N3CCC[C@H]3COc3ccccc3)cc21` [IIIa, (S)-1-(p-hydroxybenzyl)-5-[1-(2-phenoxymethylpyrrolidinyl)sulfonyl]isatin], in data set [1], the Ki turned out to be 3 nM.

Source of the values: US8440841B2, “5-pyrrolidinylsulfonyl isatin derivatives” (Universitätsklinikum Münster, priority 2005, dated 2013).
